Data: PubChem BioAssay (NCI)
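Tested at 5 concentrations; 48 h exposure; 96-well plates; endpoints linearly interpolated, else capped at highest concentration. GI50 is the concentration that inhibits growth by half. At the TGI there is no net growth.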

Columns and labels:
Assay in all cases: NCI anticancer screen, dose series, 48 h
786-0 renal = system: 786-0 renal
A498 renal = system: A498 renal
BT-549 breast = system: BT-549 breast
CAKI-1 renal = system: CAKI-1 renal
DU-145 prostate = system: DU-145 prostate
HL-60(TB) leukemia = system: HL-60(TB) leukemia
HS 578T breast = system: HS 578T breast
MDA-MB-231 breast = system: MDA-MB-231 breast
NCI-H226 lung = system: NCI-H226 lung
NCI/ADR-RES ovarian = system: NCI/ADR-RES ovarian
OVCAR-5 ovarian = system: OVCAR-5 ovarian
RXF 393 renal = system: RXF 393 renal
SF-295 CNS = system: SF-295 CNS
SF-539 CNS = system: SF-539 CNS
UO-31 renal = system: UO-31 renal
ACHN renal = system: ACHN renal
CCRF-CEM leukemia = system: CCRF-CEM leukemia
COLO 205 colon = system: COLO 205 colon
EKVX NSCLC = system: EKVX NSCLC
HCC-2998 colon = system: HCC-2998 colon
HCT-116 colon = system: HCT-116 colon
HCT-15 colon = system: HCT-15 colon
HOP-62 NSCLC = system: HOP-62 NSCLC
HOP-92 NSCLC = system: HOP-92 NSCLC
HT29 colon = system: HT29 colon
IGROV1 ovarian = system: IGROV1 ovarian
K-562 leukemia = system: K-562 leukemia
KM12 colon = system: KM12 colon
LOX IMVI melanoma = system: LOX IMVI melanoma
MALME-3M melanoma = system: MALME-3M melanoma
MCF7 breast = system: MCF7 breast
MDA-MB-435 = system: MDA-MB-435
MOLT-4 leukemia = system: MOLT-4 leukemia
NCI-H23 lung = system: NCI-H23 lung
NCI-H460 lung = system: NCI-H460 lung
NCI-H522 lung = system: NCI-H522 lung
OVCAR-3 ovarian = system: OVCAR-3 ovarian
OVCAR-4 ovarian = system: OVCAR-4 ovarian
PC-3 prostate = system: PC-3 prostate
RPMI-8226 leukemia = system: RPMI-8226 leukemia
SF-268 CNS = system: SF-268 CNS
SK-MEL-2 melanoma = system: SK-MEL-2 melanoma
SK-MEL-28 melanoma = system: SK-MEL-28 melanoma
SK-MEL-5 melanoma = system: SK-MEL-5 melanoma
SK-OV-3 ovarian = system: SK-OV-3 ovarian
SN12C renal = system: SN12C renal
SNB-19 CNS = system: SNB-19 CNS
SR leukemia = system: SR leukemia
SW-620 colon = system: SW-620 colon
TK-10 renal = system: TK-10 renal
U251 CNS = system: U251 CNS
UACC-257 melanoma = system: UACC-257 melanoma
UACC-62 melanoma = system: UACC-62 melanoma

Question: With `CN(C)c1ccc(-c2ccc(-c3ccc(C(=N)N)cc3)s2)cc1` as the molecule, how does the GI50 (786-0 renal) read?
Answer: Its GI50 is 2.21 µM.

Question: What about the TGI (786-0 renal) of the same molecule?
Answer: The TGI was 5.06 µM.

Question: What about the GI50 (A498 renal) of the same molecule?
Answer: Its GI50 is 0.0155 µM.

Question: And the TGI (A498 renal)?
Answer: Its TGI is 0.0866 µM.

Question: And the GI50 (BT-549 breast)?
Answer: Its GI50 is 21 µM.

Question: And the TGI (BT-549 breast)?
Answer: Its TGI is 78.3 µM.

Question: And the GI50 (CAKI-1 renal)?
Answer: Its GI50 is 1.79 µM.

Question: What about the TGI (CAKI-1 renal) of the same molecule?
Answer: Its TGI is 3.77 µM.

Question: And the GI50 (DU-145 prostate)?
Answer: Its GI50 is 1.8 µM.

Question: And the TGI (DU-145 prostate)?
Answer: The TGI was 3.37 µM.

Question: What about the GI50 (HL-60(TB) leukemia) of the same molecule?
Answer: The GI50 was 2.03 µM.

Question: And the TGI (HL-60(TB) leukemia)?
Answer: Its TGI is 4.57 µM.

Question: What about the GI50 (HS 578T breast) of the same molecule?
Answer: Its GI50 is 2.14 µM.

Question: What about the TGI (HS 578T breast) of the same molecule?
Answer: The TGI was 5.19 µM.

Question: And the GI50 (MDA-MB-231 breast)?
Answer: The GI50 was 1.81 µM.

Question: What about the TGI (MDA-MB-231 breast) of the same molecule?
Answer: Its TGI is 3.57 µM.

Question: And the GI50 (NCI-H226 lung)?
Answer: Its GI50 is 32.6 µM.

Question: What about the TGI (NCI-H226 lung) of the same molecule?
Answer: The TGI was over 100 µM.

Question: And the GI50 (NCI/ADR-RES ovarian)?
Answer: Its GI50 is 2.35 µM.

Question: And the TGI (NCI/ADR-RES ovarian)?
Answer: Its TGI is 5.45 µM.

Question: And the GI50 (OVCAR-5 ovarian)?
Answer: Its GI50 is 1.73 µM.

Question: What about the TGI (OVCAR-5 ovarian) of the same molecule?
Answer: Its TGI is 3.38 µM.

Question: What about the GI50 (RXF 393 renal) of the same molecule?
Answer: Its GI50 is 1.81 µM.

Question: And the TGI (RXF 393 renal)?
Answer: The TGI was 3.99 µM.

Question: What about the GI50 (SF-295 CNS) of the same molecule?
Answer: The GI50 was 1.9 µM.

Question: And the TGI (SF-295 CNS)?
Answer: The TGI was 3.61 µM.

Question: What about the GI50 (SF-539 CNS) of the same molecule?
Answer: Its GI50 is 1.76 µM.

Question: And the TGI (SF-539 CNS)?
Answer: The TGI was 3.38 µM.

Question: What about the GI50 (UO-31 renal) of the same molecule?
Answer: Its GI50 is 1.64 µM.

Question: What about the TGI (UO-31 renal) of the same molecule?
Answer: Its TGI is 3.22 µM.

Question: `CCOC(=O)c1nc2cc(C(F)(F)F)ccc2nc1Nc1ccc(C(=O)NC(C(=O)OCC)C(=O)OCC)cc1` was tested. Which TGI (786-0 renal) did it give?
Answer: The TGI was 27.6 µM.

Question: And the TGI (A498 renal)?
Answer: Its TGI is 50.3 µM.

Question: And the TGI (ACHN renal)?
Answer: The TGI was 63.1 µM.

Question: What about the TGI (BT-549 breast) of the same molecule?
Answer: Its TGI is 51.6 µM.

Question: And the TGI (CAKI-1 renal)?
Answer: The TGI was 37 µM.

Question: What about the TGI (CCRF-CEM leukemia) of the same molecule?
Answer: Its TGI is over 100 µM.

Question: What about the TGI (COLO 205 colon) of the same molecule?
Answer: The TGI was over 100 µM.

Question: What about the TGI (DU-145 prostate) of the same molecule?
Answer: Its TGI is over 100 µM.

Question: And the TGI (EKVX NSCLC)?
Answer: The TGI was 66.2 µM.

Question: And the TGI (HCC-2998 colon)?
Answer: Its TGI is over 100 µM.

Question: And the TGI (HCT-116 colon)?
Answer: The TGI was 37.4 µM.

Question: And the TGI (HCT-15 colon)?
Answer: Its TGI is over 100 µM.

Question: What about the TGI (HL-60(TB) leukemia) of the same molecule?
Answer: Its TGI is over 100 µM.

Question: What about the TGI (HOP-62 NSCLC) of the same molecule?
Answer: The TGI was 41 µM.

Question: And the TGI (HOP-92 NSCLC)?
Answer: The TGI was 58.8 µM.

Question: And the TGI (HS 578T breast)?
Answer: Its TGI is 37.5 µM.

Question: What about the TGI (HT29 colon) of the same molecule?
Answer: Its TGI is over 100 µM.

Question: And the TGI (IGROV1 ovarian)?
Answer: Its TGI is 54.2 µM.

Question: And the TGI (K-562 leukemia)?
Answer: Its TGI is over 100 µM.

Question: What about the TGI (KM12 colon) of the same molecule?
Answer: The TGI was over 100 µM.

Question: And the TGI (LOX IMVI melanoma)?
Answer: The TGI was over 100 µM.

Question: What about the TGI (MALME-3M melanoma) of the same molecule?
Answer: Its TGI is 40.3 µM.

Question: And the TGI (MCF7 breast)?
Answer: The TGI was 57.2 µM.

Question: What about the TGI (MDA-MB-231 breast) of the same molecule?
Answer: Its TGI is 50.4 µM.

Question: And the TGI (MDA-MB-435)?
Answer: Its TGI is over 100 µM.

Question: And the TGI (MOLT-4 leukemia)?
Answer: Its TGI is over 100 µM.

Question: What about the TGI (NCI-H226 lung) of the same molecule?
Answer: Its TGI is 34.8 µM.

Question: And the TGI (NCI-H23 lung)?
Answer: The TGI was over 100 µM.

Question: What about the TGI (NCI-H460 lung) of the same molecule?
Answer: Its TGI is over 100 µM.

Question: What about the TGI (NCI-H522 lung) of the same molecule?
Answer: Its TGI is 40.3 µM.

Question: And the TGI (OVCAR-3 ovarian)?
Answer: The TGI was over 100 µM.

Question: And the TGI (OVCAR-4 ovarian)?
Answer: Its TGI is 33.1 µM.

Question: And the TGI (OVCAR-5 ovarian)?
Answer: Its TGI is over 100 µM.

Question: What about the TGI (PC-3 prostate) of the same molecule?
Answer: Its TGI is over 100 µM.

Question: And the TGI (RPMI-8226 leukemia)?
Answer: Its TGI is 65.8 µM.

Question: And the TGI (RXF 393 renal)?
Answer: The TGI was 28.8 µM.

Question: And the TGI (SF-268 CNS)?
Answer: The TGI was 53.6 µM.

Question: And the TGI (SF-295 CNS)?
Answer: The TGI was 30.8 µM.

Question: And the TGI (SK-MEL-2 melanoma)?
Answer: Its TGI is over 100 µM.

Question: And the TGI (SK-MEL-28 melanoma)?
Answer: The TGI was 69.2 µM.

Question: What about the TGI (SK-MEL-5 melanoma) of the same molecule?
Answer: The TGI was 54.2 µM.

Question: And the TGI (SK-OV-3 ovarian)?
Answer: Its TGI is 42.1 µM.

Question: And the TGI (SN12C renal)?
Answer: The TGI was 47.2 µM.

Question: And the TGI (SNB-19 CNS)?
Answer: The TGI was 55.3 µM.

Question: And the TGI (SR leukemia)?
Answer: Its TGI is over 100 µM.

Question: And the TGI (SW-620 colon)?
Answer: Its TGI is over 100 µM.

Question: And the TGI (TK-10 renal)?
Answer: Its TGI is 97.4 µM.

Question: And the TGI (U251 CNS)?
Answer: The TGI was 32 µM.

Question: And the TGI (UACC-257 melanoma)?
Answer: The TGI was 51.9 µM.

Question: And the TGI (UACC-62 melanoma)?
Answer: Its TGI is 27.6 µM.

Question: And the TGI (UO-31 renal)?
Answer: The TGI was 91.9 µM.
